Measured values reported in article PMC6211316, “Synthesis and biological evaluation of 3-arylcoumarin derivatives as potential anti-diabetic agents” (Journal of Enzyme Inhibition and Medicinal Chemistry, 2018).

Legend:
[1] = Oral toxicity to mice (Lorke's method); conditions: both sexes, mouse, in vivo, Kunming mice, observed 14 days
Protocol: With reference to Lorke’s method, kunming mice were used as targets to estimate the oral toxicity of each compound to mice. We select compounds 11, 17, 25, 28, and 35 at concentrations of 10, 100, and 1000 mg/kg to test their oral toxicity in the first phase, and 1600, 2900, and 5000 mg/kg at the second phase.
Experiments were performed on Kunming mice (male and female half, bw range, 25–30 g). Mice were housed in a climate and light controlled room with a 12 h light/dark cycle. Twelve hours before experiments, food was withheld, but animals had free access to drinking water. The compounds were suspended in vehicle (Tween-80, 0.2% in saline). The concentrations were adjusted to orally administrate 0.2 ml/10 g of bw. Mice were treated in two phases. In the first, intragastric doses of 10, 100 and 1000 mg/kg of bw of compounds were administered. On the second, the doses were adjusted to 1600, 2900, and 5000 mg/kg of bw of compounds. In both phases, mice were observed daily in a period of 14 days for mortality, toxic effects and/or changes in behavioural pattern. At the end of the experiments, the mice were sacrificed in a CO2 chamber.

[2] = tested on: normal mice; test: Acute hypoglycemic assay in normal mice; assay type: in vivo
Protocol: STZ-induced diabetic mice and normal mice were placed in single cages with wire-net floors and deprived of food for 12 h before experimentation but allowed free access to tap water throughout. The compounds (at the doses of 10, 30, and 100 mg/kg of bw) were suspended in 0.05% Tween-80 in saline solution. Glibenclamide (10 mg/kg of bw) was suspended in the same vehicle. The target compounds were freshly prepared immediately before experimentation and administered by the intragastrical route at the doses of 10 ml/kg of bw. Control mice received only the vehicle (0.05% Tween-80 in saline solution) by the same route. Blood glucose levels were measured at 0, 1.5, 3, 5, 7, and 9 h after drugs administration.

[3] = DPPH free radical scavenging; conditions: mean ± SD (n = 3)
How it was run: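 Sample solutions at various concentrations mixed 1:1 with DPPH (0.04 mg/mL) and reacted 30 min at room temperature; absorbance read at 517 nm against ethanol blank, corrected for sample absorbance. Scavenging % calculated versus DPPH alone, triplicate measurements, IC50 derived.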

[4] = tested on: STZ-induced diabetic mice; test: Daily treatment for 16 days in STZ-induced diabetic mice; assay type: in vivo; conditions: for bw loss in hyperglycemic mice: 30 mg/kg of bw daily per os; for long-term anti-hyperglycemic effect (blood glucose levels): 30 mg/kg of bw oral, once a day, for 16 days
Protocol: Thereafter, the target compounds 11, 17, 35, and glibenclamide were administered once (9 a.m.) on a daily basis, for a period of 16 days, to STZ-induced diabetic mice which were divided into five groups (A-E). A six group of normal mice (Group F) was used as a control. Groups E (diabetic control) and F received vehicle (0.05% Tween-80 in saline solution) per os for 16 days. Group A received glibenclamide (10 mg/kg of bw daily). Groups B–D received different treatments: B, compound 11 (30 mg/kg of bw daily); C, compound 17 (30 mg/kg of bw daily); D, compound 35 (30 mg/kg of bw daily). All tested materials were suspended in the same vehicle and administered per os daily for 16 days. The animals were housed under standard laboratory conditions and maintained with free access to water and food during all the experiment. Blood glucose concentration on animals of diabetic (Groups A–E) and control group (Group F) was estimated at days 1, 4, 7, 10, 13, and 16. The bw of the animals were measured concomitantly to the blood glucose analyses. All experiments were carried out using six animals per group.

[5] = tested on: STZ-induced diabetic mice; test: Oral glucose tolerance test in STZ-induced diabetic mice; assay type: in vivo; conditions: 30 mg/kg of bw, glucose 2 g/kg of bw, vs vehicle-treated group (p < 0.05)
Protocol: The target compounds 11, 17, and 35 (30 mg/kg of bw) and control drugs (glibenclamide 10 mg/kg of bw) were dissolved in the vehicle (Tween-80, NaCl 0.9%). Glucose (2 g/kg of bw) was used for the glucose tolerance tests. The control mice group received only the vehicle. All cases were treated orally. Blood samples were collected from caudal vein by means of a small incision in the end of the tail. Blood glucose levels were estimated by a commercial glucometer (Bayer Contour TS). For the anti-hyperglycemic tests, blood samples were obtained 0.5, 1, 1.5, 2, and 3 h after the glucose load. Percentage variation of glycemia for each group was calculated with respect to initial (0 h) level according to: % Variation of glycemia=[(Gi−Gt)/Gi]×100% where Gi is initial glycemia values and Gt is the glycemia value after samples administration. For the anti-hyperglycemic tests, data were represented as % variation of glycemia versus time. Studies were performed in normoglycemic and STZ-induced diabetic mice.

Row | SMILES | LD50 at 14 days [1] | Blood glucose concentration ([2]; 10 mg/kg of bw per os, 0h) | % Variation of glycemia ([2]; 10 mg/kg of bw per os, 1.5h) | Blood glucose concentration ([2]; 10 mg/kg of bw per os, 1.5h) | % Variation of glycemia ([2]; 10 mg/kg of bw per os, 3h) | Blood glucose concentration ([2]; 10 mg/kg of bw per os, 3h) | % Variation of glycemia ([2]; 10 mg/kg of bw per os, 5h) | Blood glucose concentration ([2]; 10 mg/kg of bw per os, 5h) | % Variation of glycemia ([2]; 10 mg/kg of bw per os, 7h) | Blood glucose concentration ([2]; 10 mg/kg of bw per os, 7h) | % Variation of glycemia ([2]; 10 mg/kg of bw per os, 9h) | Blood glucose concentration ([2]; 10 mg/kg of bw per os, 9h) | Blood glucose concentration ([2]; 30 mg/kg of bw per os, 0h) | % Variation of glycemia ([2]; 30 mg/kg of bw per os, 1.5h) | Blood glucose concentration ([2]; 30 mg/kg of bw per os, 1.5h) | % Variation of glycemia ([2]; 30 mg/kg of bw per os, 3h) | Blood glucose concentration ([2]; 30 mg/kg of bw per os, 3h) | % Variation of glycemia ([2]; 30 mg/kg of bw per os, 5h) | Blood glucose concentration ([2]; 30 mg/kg of bw per os, 5h) | IC50 [3] | further results
1 | Cc1ccccc1-c1cc2ccc(O)cc2oc1=O [Compound 11, 7-Hydroxy-3-(2-methylphenyl)-coumarin] | > 5000 mg/kg | 10.0 ± 0.7 mM | (−15.27) % | 9.1 ± 0.2 mM | (−28.35) % | 7.7 ± 0.6 mM | (−38.01) % | 6.6 ± 0.5 mM | (−47.98) % | 5.6 ± 0.4 mM | (−48.91) % | 5.5 ± 1.2 mM | 10.2 ± 1.2 mM | (−13.62) % | 8.7 ± 1.2 mM | (−30.90) % | 6.9 ± 1.1 mM | (−40.86) % | 5.9 ± 1.1 mM | 564.2 ± 5.2 µM | % Variation of glycemia ([2]; 30 mg/kg of bw per os, 7h): (−47.84) %; Blood glucose concentration ([2]; 30 mg/kg of bw per os, 7h): 5.2 ± 0.8 mM; % Variation of glycemia ([2]; 30 mg/kg of bw per os, 9h): (−49.17) %; Blood glucose concentration ([2]; 30 mg/kg of bw per os, 9h): 5.1 ± 0.6 mM; Blood glucose concentration ([2]; 100 mg/kg of bw per os, 0h): 10.4 ± 0.7 mM; % Variation of glycemia ([2]; 100 mg/kg of bw per os, 1.5h): (−31.37) %; Blood glucose concentration ([2]; 100 mg/kg of bw per os, 1.5h): 7.0 ± 1.1 mM; % Variation of glycemia ([2]; 100 mg/kg of bw per os, 3h): (−42.16) %; Blood glucose concentration ([2]; 100 mg/kg of bw per os, 3h): 5.9 ± 0.6 mM; % Variation of glycemia ([2]; 100 mg/kg of bw per os, 5h): (−52.94) %; Blood glucose concentration ([2]; 100 mg/kg of bw per os, 5h): 4.8 ± 1.3 mM; % Variation of glycemia ([2]; 100 mg/kg of bw per os, 7h): (−54.25) %; Blood glucose concentration ([2]; 100 mg/kg of bw per os, 7h): 4.7 ± 0.4 mM; % Variation of glycemia ([2]; 100 mg/kg of bw per os, 9h): (−58.17) %; Blood glucose concentration ([2]; 100 mg/kg of bw per os, 9h): 4.3 ± 0.3 mM; bw loss in hyperglycemic mice ([4]; 16 days): prevented bw loss; long-term anti-hyperglycemic effect (blood glucose levels) [4]: less efficient in decreasing blood glucose levels
2 | O=c1oc2ccc(O)cc2cc1-c1ccc(O)cc1 [Compound 17, 6-Hydroxy-3-(4-hydroxyphenyl)-coumarin] | > 5000 mg/kg | 10.6 ± 0.4 mM | (−23.96) % | 7.9 ± 0.7 mM | (−34.19) % | 6.9 ± 0.8 mM | (−45.37) % | 5.7 ± 0.7 mM | (−48.56) % | 5.4 ± 0.5 mM | (−51.12) % | 5.1 ± 0.4 mM | 10.8 ± 0.3 mM | (−18.39) % | 8.4 ± 1.0 mM | (−33.55) % | 6.9 ± 0.9 mM | (−48.71) % | 5.3 ± 0.7 mM | 163 ± 7.13 µM | postprandial glycemia peak in oral glucose tolerance test [5]: caused significant decrease in the postprandial glycemia peak; % Variation of glycemia ([2]; 30 mg/kg of bw per os, 7h): (−48.71) %; Blood glucose concentration ([2]; 30 mg/kg of bw per os, 7h): 5.3 ± 1.1 mM; % Variation of glycemia ([2]; 30 mg/kg of bw per os, 9h): (−56.45) %; Blood glucose concentration ([2]; 30 mg/kg of bw per os, 9h): 4.5 ± 0.6 mM; Blood glucose concentration ([2]; 100 mg/kg of bw per os, 0h): 10.4 ± 0.2 mM; % Variation of glycemia ([2]; 100 mg/kg of bw per os, 1.5h): (−25.90) %; Blood glucose concentration ([2]; 100 mg/kg of bw per os, 1.5h): 7.5 ± 1.2 mM; % Variation of glycemia ([2]; 100 mg/kg of bw per os, 3h): (−37.71) %; Blood glucose concentration ([2]; 100 mg/kg of bw per os, 3h): 6.3 ± 0.9 mM; % Variation of glycemia ([2]; 100 mg/kg of bw per os, 5h): (−49.18) %; Blood glucose concentration ([2]; 100 mg/kg of bw per os, 5h): 5.2 ± 0.5 mM; % Variation of glycemia ([2]; 100 mg/kg of bw per os, 7h): (−53.44) %; Blood glucose concentration ([2]; 100 mg/kg of bw per os, 7h): 4.7 ± 0.4 mM; % Variation of glycemia ([2]; 100 mg/kg of bw per os, 9h): (−58.03) %; Blood glucose concentration ([2]; 100 mg/kg of bw per os, 9h): 4.3 ± 0.4 mM; bw loss in hyperglycemic mice ([4]; 16 days): prevented bw loss; long-term anti-hyperglycemic effect (blood glucose levels) [4]: induced obviously anti-hyperglycemic effect
3 | Cc1ccc(-c2cc3c(O)cc(O)cc3oc2=O)cc1 [Compound 25, 5,7-Dihydroxy-3-(4-methylphenyl)-coumarin] | > 5000 mg/kg |  |  |  |  |  |  |  |  |  |  |  |  |  |  |  |  |  |  | 603 ± 7.42 µM | 
4 | COc1ccc(-c2cc3c(O)cc(O)cc3oc2=O)cc1 [Compound 35, 5,7-Dihydroxy-3-(4-methoxyphenyl)-coumarin] | > 5000 mg/kg | 10.8 ± 0.6 mM | (−14.55) % | 9.2 ± 0.6 mM | (−24.15) % | 8.2 ± 0.5 mM | (−25.70) % | 8.0 ± 0.4 mM | (−31.27) % | 7.4 ± 0.5 mM | (−34.06) % | 7.1 ± 0.3 mM | 10.5 ± 0.9 mM | (−17.72) % | 8.7 ± 1.0 mM | (−31.65) % | 7.2 ± 0.8 mM | (−39.24) % | 6.4 ± 1.0 mM | 155 ± 10.5 µM | postprandial glycemia peak in oral glucose tolerance test [5]: caused significant decrease in the postprandial glycemia peak; % Variation of glycemia ([2]; 30 mg/kg of bw per os, 7h): (−44.94) %; Blood glucose concentration ([2]; 30 mg/kg of bw per os, 7h): 5.8 ± 0.7 mM; % Variation of glycemia ([2]; 30 mg/kg of bw per os, 9h): (−44.30) %; Blood glucose concentration ([2]; 30 mg/kg of bw per os, 9h): 5.9 ± 0.6 mM; Blood glucose concentration ([2]; 100 mg/kg of bw per os, 0h): 10.6 ± 0.4 mM; % Variation of glycemia ([2]; 100 mg/kg of bw per os, 1.5h): (−18.18) %; Blood glucose concentration ([2]; 100 mg/kg of bw per os, 1.5h): 8.7 ± 0.5 mM; % Variation of glycemia ([2]; 100 mg/kg of bw per os, 3h): (−40.44) %; Blood glucose concentration ([2]; 100 mg/kg of bw per os, 3h): 6.3 ± 1.0 mM; % Variation of glycemia ([2]; 100 mg/kg of bw per os, 5h): (−49.22) %; Blood glucose concentration ([2]; 100 mg/kg of bw per os, 5h): 5.4 ± 0.6 mM; % Variation of glycemia ([2]; 100 mg/kg of bw per os, 7h): (−55.17) %; Blood glucose concentration ([2]; 100 mg/kg of bw per os, 7h): 4.8 ± 0.6 mM; % Variation of glycemia ([2]; 100 mg/kg of bw per os, 9h): (−57.05) %; Blood glucose concentration ([2]; 100 mg/kg of bw per os, 9h): 4.6 ± 0.7 mM; bw loss in hyperglycemic mice ([4]; 16 days): prevented bw loss; blood glucose levels at the end of the experiment ([4]; 30 mg/kg of bw daily, 16 days): restored blood glucose levels to near normal values; long-term anti-hyperglycemic effect (blood glucose levels) [4]: induced obviously anti-hyperglycemic effect
